According to ChEMBL document CHEMBL1139911, “4-substituted indazoles as new inhibitors of neuronal nitric oxide synthase” (Bioorg Med Chem Lett, 2007):
Blank lines part the entries; values can stand above or below the molecule they belong to.

Assays:
Nitric oxide synthase 1 = Nitric oxide synthase 1 (Rattus norvegicus, UniProt P29476); test: Inhibition of rat neuronal NOS
Mus musculus [1] = test: Antinociceptive effect in acetic acid-induced mouse assessed as number of writhes for 10 mins at 12.5 mg/kg, ip; assay type: functional; conditions: route intraperitoneal
Mus musculus [2] = test: Antinociceptive effect in mouse assessed as number of writhes for 10 mins at 50 mg/kg, ip; assay type: functional; conditions: route intraperitoneal
Mus musculus [3] = test: Antinociceptive effect in acetic acid-induced mouse assessed as number of writhes for 10 mins at 50 mg/kg, ip; assay type: functional; conditions: route intraperitoneal
Mus musculus [4] = test: Antinociceptive effect in acetic acid-induced mouse assessed as number of writhes for 10 mins at 25 mg/kg, ip; assay type: functional; conditions: route intraperitoneal
Mus musculus [5] = test: Reversal of antinociceptive effect in L-arginine pretreated mouse assessed as number or writhes for 10 mins at 50 mg/kg, ip; assay type: functional; conditions: route intraperitoneal

Chain of Nitric oxide synthase 1 (P29476 whole entry): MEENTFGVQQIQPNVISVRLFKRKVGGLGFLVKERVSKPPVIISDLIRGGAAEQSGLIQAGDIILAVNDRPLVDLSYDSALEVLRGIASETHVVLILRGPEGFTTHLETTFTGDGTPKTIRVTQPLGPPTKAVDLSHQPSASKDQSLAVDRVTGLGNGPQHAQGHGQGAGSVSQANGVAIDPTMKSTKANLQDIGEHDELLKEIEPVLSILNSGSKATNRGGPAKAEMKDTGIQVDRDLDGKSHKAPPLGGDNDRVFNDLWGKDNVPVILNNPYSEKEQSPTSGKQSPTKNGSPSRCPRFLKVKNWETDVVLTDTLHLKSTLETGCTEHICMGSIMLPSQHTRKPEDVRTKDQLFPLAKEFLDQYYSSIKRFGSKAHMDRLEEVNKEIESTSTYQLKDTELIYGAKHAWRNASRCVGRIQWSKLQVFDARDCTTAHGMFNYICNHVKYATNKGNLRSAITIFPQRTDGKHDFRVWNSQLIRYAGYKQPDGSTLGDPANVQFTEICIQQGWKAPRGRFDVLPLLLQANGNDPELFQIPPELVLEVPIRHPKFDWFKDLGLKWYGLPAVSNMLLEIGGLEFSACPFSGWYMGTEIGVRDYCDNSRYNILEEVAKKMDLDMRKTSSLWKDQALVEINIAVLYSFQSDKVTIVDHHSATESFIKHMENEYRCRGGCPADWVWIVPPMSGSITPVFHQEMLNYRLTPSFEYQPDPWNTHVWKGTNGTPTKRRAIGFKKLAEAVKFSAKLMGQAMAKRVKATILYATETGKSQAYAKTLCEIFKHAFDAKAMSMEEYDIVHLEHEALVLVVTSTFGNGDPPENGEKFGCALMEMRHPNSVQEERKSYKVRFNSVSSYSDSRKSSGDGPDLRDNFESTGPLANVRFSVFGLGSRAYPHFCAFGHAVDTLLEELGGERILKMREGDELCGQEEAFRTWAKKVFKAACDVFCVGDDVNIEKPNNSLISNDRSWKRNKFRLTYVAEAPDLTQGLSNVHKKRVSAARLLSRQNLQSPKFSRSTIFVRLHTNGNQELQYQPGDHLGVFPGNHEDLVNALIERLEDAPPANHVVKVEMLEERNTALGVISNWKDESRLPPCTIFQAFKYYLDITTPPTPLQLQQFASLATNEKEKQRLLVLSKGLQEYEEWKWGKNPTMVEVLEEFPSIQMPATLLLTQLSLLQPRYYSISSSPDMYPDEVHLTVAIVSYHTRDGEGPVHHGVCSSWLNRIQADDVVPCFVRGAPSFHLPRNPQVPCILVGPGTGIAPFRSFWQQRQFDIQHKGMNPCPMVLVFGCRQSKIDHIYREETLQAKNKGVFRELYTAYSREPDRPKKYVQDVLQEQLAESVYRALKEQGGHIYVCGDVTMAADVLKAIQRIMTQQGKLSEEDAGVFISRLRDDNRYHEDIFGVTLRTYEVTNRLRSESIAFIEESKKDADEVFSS

SMILES: Brc1cccc2[nH]ncc12
IC50 (Nitric oxide synthase 1): 2.4 µM
Activity (Mus musculus [1]): 11
Activity (Mus musculus [2]): 10.8
Activity (Mus musculus [3]): 9.3
Activity (Mus musculus [4]): 8.8
Activity (Mus musculus [5]): 24.3

SMILES: N=C(N)NCCC[C@H](N)C(=O)O [ARGININE]
Activity (Mus musculus [2]): 22.9

SMILES: Fc1ccc2[nH]ncc2c1
IC50 (Nitric oxide synthase 1): > 100 µM

SMILES: CC(=O)Oc1ccccc1C(=O)O [ASPIRIN]
Activity (Mus musculus [1]): 7.6

SMILES: Fc1cccc2[nH]ncc12
IC50 (Nitric oxide synthase 1): > 100 µM

SMILES: Ic1ccc2[nH]ncc2c1
IC50 (Nitric oxide synthase 1): 37 µM

SMILES: O=[N+]([O-])c1cccc2cn[nH]c12 [7-NITROINDAZOLE]
Activity (Mus musculus [3]): 6.8

SMILES: Clc1cccc2[nH]ncc12
IC50 (Nitric oxide synthase 1): 44.3 µM

SMILES: O=[N+]([O-])c1cccc2[nH]ncc12
Activity (Mus musculus [1]): 18
Activity (Mus musculus [2]): 11.8
Activity (Mus musculus [3]): 9.3
Activity (Mus musculus [4]): 9.9
Activity (Mus musculus [5]): 23.8

Now from value to molecule, other results behind:

IC50 (Nitric oxide synthase 1): > 100 µM
SMILES: Fc1ccc2cn[nH]c2c1

IC50 (Nitric oxide synthase 1): 14.3 µM
SMILES: Brc1cccc2cn[nH]c12

IC50 (Nitric oxide synthase 1): 4.2 µM
SMILES: Clc1cccc2cn[nH]c12
Activity (Mus musculus [1]): 15
Activity (Mus musculus [2]): 12.1
Activity (Mus musculus [3]): 7.9
Activity (Mus musculus [4]): 12.9
Activity (Mus musculus [5]): 23

IC50 (Nitric oxide synthase 1): 22 µM
SMILES: Clc1ccc2cn[nH]c2c1

IC50 (Nitric oxide synthase 1): 72 µM
SMILES: Brc1ccc2[nH]ncc2c1

IC50 (Nitric oxide synthase 1): 4.3 µM
SMILES: Brc1ccc2cn[nH]c2c1

IC50 (Nitric oxide synthase 1): 59.3 µM
SMILES: Clc1ccc2[nH]ncc2c1

IC50 (Nitric oxide synthase 1): 17 µM
SMILES: Ic1cccc2[nH]ncc12
